Data: US11299496B2, “Ligands for alpha-7 nicotinic acetylcholine receptors and methods of treating neurological and inflammatory conditions” (Northeastern University, priority 2014, dated 2022)

Columns and labels:
CCI mice = assay: Chronic constriction injury (CCI) model, mechanical allodynia (von Frey); format: in vivo, mouse
Experimental: Mice were anesthetized with pentobarbital (45 mg/kg, i.p.). An incision was made just below the hipbone, parallel to the sciatic nerve. The right common sciatic nerve was exposed at the level proximal to the sciatic trifurcation, and a nerve segment 3-5 mm long was separated from surrounding connective tissue. Two loose ligatures with 6-0 silk suture were made around the nerve with a 1.0-1.5 mm interval between them. Muscles were closed with suture thread and the wound with wound clips. […] Any suture that remained after two weeks was removed from the healed surgical wound. Mechanical allodynia (von Frey test) was measured before and after drug injections.
The antiallodynic effects of test compounds were assessed in three experiments consisting of CCI mice and sham control mice. […] The anti-allodynic effects of alpha-7 nAChRs PAMs and ago-PAMs were tested (four doses and vehicle control, N=10 mice/group, administered i.p.) in the CCI model. Mice were assessed for mechanical allodynia 2 weeks after the CCI surgery. All these studies will be conducted in blinded manner. CCI and sham control mice received two conditioning sessions per day (vehicle in the morning and drug in the afternoon) over the course of 3 days, and were tested for a place preference on day 7 without any injections.
Pain behavioral data are presented as mean±S.E.M. (see FIGS. 5A and 5B). Statistical analysis was performed using the t-test or two-way analysis of variance test, followed by the post-hoc Bonferroni's test. All differences were considered significant at p<0.05, and significant differences are shown with asterisks in FIGS. 5A and 5B. ED50 values with 95% confidence limits (CL) were calculated by unweighted least-squares linear regression.

human alpha-7 nAChR = target: T1, human alpha-7 nAChR (Homo sapiens, UniProt P36544); assay: Two-electrode voltage clamp of alpha-7 nAChR expressed in Xenopus oocytes (net charge); format: cell-based
T1 construct: expressed in transfected cells; host or cells: Xenopus laevis oocytes (cRNA injection)
Procedure, shortened: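 Human α7 nAChR co-expressed with RIC-3 in Xenopus oocytes; two-electrode clamp at −60 mV, 12 s applications in Ringer's pH 7.3. Net charge integrated over 120 s from application, normalized to prior ACh controls; measured for compound alone and with choline or ACh; n≥4 oocytes.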

CFA-injected mice = assay: Complete Freund's Adjuvant test (mechanical allodynia, thermal hyperalgesia); format: in vivo, mouse
Experimental: Mice were injected with 20 μl of CFA (0.5 mg/ml of heat killed Mycobacterium tuberculosis, Sigma) in the intraplantar region of the right hindpaw. Paw diameter and thermal hyperalgesia (see paw withdrawal test) were measured 3 days after CFA injection. In separate groups of mice that received CFA, mechanical allodynia thresholds were determined according to previously published method (Ondachi et. al. J Med Chem. 2014 Feb. 13; 57(3):836-48. doi: 10.1021/jm401602p). Mice were placed in a plexiglas cage with mesh metal flooring and allowed to acclimate for 30 min before testing. A series of calibrated von Frey filaments (Stoelting, Wood Dale, Ill.) with logarithmically incremental stiffness ranging from 2.83 to 5.88 expressed as log 10 of [10 £ force in (mg)] were applied to the paw with a modified up-down method. In the absence of a paw withdrawal response to the initially selected filament, a thicker filament corresponding to a stronger stimulus was presented. In the event of paw withdrawal, the next weaker stimulus was chosen. Each hair was presented perpendicularly against the paw, with sufficient force to cause slight bending, and held 2-3 s. The stimulation of the same intensity was applied 5 times to the hindpaw at intervals of a few seconds. Three or more responses out of five stimulations were coded as a positive response. Once a positive response was detected, sequentially lower weight filaments were used to assess the sensory threshold for each paw. The allodynia scores were recorded in a blinded fashion.
A similar sequence of drug treatment described for the formalin testing was used to test the antinociceptive effects of alpha-7 nAChRs ago-PAMs in the CFA model of inflammatory pain. […] Paw diameter and mechanical allodynia will be measured 3 days after CFA injection. We assessed the dose-response relationship of […]7 nAChRs ago-PAMs (4 doses) in reversing CFA-induced mechanical allodynia and paw edema.

T1 sequence (P36544 23-502): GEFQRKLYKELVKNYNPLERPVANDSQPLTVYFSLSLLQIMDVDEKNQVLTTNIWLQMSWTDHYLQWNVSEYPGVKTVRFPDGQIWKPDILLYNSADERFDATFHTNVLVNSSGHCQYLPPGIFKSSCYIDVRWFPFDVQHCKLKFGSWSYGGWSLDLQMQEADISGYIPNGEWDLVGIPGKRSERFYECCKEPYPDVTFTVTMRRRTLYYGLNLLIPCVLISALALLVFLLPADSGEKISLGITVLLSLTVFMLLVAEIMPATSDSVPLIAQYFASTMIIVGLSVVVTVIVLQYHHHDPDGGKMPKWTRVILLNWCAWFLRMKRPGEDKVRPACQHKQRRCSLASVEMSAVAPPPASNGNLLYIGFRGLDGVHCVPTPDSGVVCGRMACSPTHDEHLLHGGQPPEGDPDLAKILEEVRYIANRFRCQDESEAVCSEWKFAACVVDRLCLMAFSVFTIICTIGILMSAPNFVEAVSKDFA

NS(=O)(=O)c1ccc2c(c1)[C@H]1C=CC[C@H]1[C@@H](c1ccc(Br)cc1)N2 [Compound 1, (3aR,4S,9bS)-4-(4-bromophenyl)-3a,4,5,9b-tetrahydro-3H-cyclopenta[c]quinoline-8-sulfonamide]
anti-allodynic effect in CCI mice (CCI mice; i.p., FIG. 5A): significant anti-allodynic effect
effect on sham mice (CCI mice; sham control mice): no effect on sham mice
Charge Alone (human alpha-7 nAChR; compound alone acting as an allosteric agonist, area under the curve of current vs. time): 450
Charge +C (human alpha-7 nAChR; compound together with choline or ACh, includes PAM and ago-PAM activity, area under the curve of current vs. time): 1700
activity of separated enantiomer vs racemate 4BP-TQS (human alpha-7 nAChR; enantioseparation and electrophysiological characterization): all the activity of the racemate of 4BP-TQS lies in one enantiomer
antiallodynic and antihyperalgesic effects after MLA (CFA-injected mice; data not shown): MLA blocked the effects
duration of antiallodynic effect (CFA-injected mice; i.p., dose dependent): 180 min
duration of antihyperalgesic effect (CFA-injected mice; mouse, in vivo): 60 min
